Patent US10689354B2, “Aminoazole derivative” (Teijin Pharma Limited, priority 2015, dated 2020)

Key:
[1] = biological target: T1, androgen receptor (AR-LBD) (Rattus norvegicus, UniProt P15207); experiment: Evaluation of androgen receptor affinity (PolarScreen Androgen Receptor Competitor Assay Kit, Red; fluorescence polarization); details: 22° C. for 5 hours, relative to binding rate of 1 μM DHT, read-out: AR affinity (pEC50) (converted)
T1 construct: 5 μL of 2×AR-LBD/Fluoromone AL Red Complex contained in the kit; purchased Invitrogen
T1 sequence (P15207 651-882 limits assumed): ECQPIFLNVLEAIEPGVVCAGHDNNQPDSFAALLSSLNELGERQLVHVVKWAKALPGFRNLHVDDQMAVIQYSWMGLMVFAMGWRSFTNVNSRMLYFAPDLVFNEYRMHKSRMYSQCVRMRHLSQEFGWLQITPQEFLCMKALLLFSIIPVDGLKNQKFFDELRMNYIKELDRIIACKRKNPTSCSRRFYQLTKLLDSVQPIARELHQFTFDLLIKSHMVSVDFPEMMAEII
Procedure, shortened: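 Duplicate wells of test compound were mixed with the kit's rat AR-LBD–Fluoromone AL Red tracer complex and left 5 hours at 22 °C before polarization was read. A 4-parameter fit gave pEC50, with binding rate referenced to 1 μM dihydrotestosterone.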

human androgen receptor = biological target: T2, human androgen receptor (Homo sapiens, UniProt P10275); experiment: Reporter assay of an androgen receptor responsive sequence (luciferase, transiently transfected HEK293 cells); format: cell-based; details: 24 hours incubation, relative to activity of 100 nM DHT, read-out: AR transcriptive activity (pEC50) (converted)
T2 construct: expressed in transfected cells; host or cells: HEK293
T2 sequence (P10275 1-920): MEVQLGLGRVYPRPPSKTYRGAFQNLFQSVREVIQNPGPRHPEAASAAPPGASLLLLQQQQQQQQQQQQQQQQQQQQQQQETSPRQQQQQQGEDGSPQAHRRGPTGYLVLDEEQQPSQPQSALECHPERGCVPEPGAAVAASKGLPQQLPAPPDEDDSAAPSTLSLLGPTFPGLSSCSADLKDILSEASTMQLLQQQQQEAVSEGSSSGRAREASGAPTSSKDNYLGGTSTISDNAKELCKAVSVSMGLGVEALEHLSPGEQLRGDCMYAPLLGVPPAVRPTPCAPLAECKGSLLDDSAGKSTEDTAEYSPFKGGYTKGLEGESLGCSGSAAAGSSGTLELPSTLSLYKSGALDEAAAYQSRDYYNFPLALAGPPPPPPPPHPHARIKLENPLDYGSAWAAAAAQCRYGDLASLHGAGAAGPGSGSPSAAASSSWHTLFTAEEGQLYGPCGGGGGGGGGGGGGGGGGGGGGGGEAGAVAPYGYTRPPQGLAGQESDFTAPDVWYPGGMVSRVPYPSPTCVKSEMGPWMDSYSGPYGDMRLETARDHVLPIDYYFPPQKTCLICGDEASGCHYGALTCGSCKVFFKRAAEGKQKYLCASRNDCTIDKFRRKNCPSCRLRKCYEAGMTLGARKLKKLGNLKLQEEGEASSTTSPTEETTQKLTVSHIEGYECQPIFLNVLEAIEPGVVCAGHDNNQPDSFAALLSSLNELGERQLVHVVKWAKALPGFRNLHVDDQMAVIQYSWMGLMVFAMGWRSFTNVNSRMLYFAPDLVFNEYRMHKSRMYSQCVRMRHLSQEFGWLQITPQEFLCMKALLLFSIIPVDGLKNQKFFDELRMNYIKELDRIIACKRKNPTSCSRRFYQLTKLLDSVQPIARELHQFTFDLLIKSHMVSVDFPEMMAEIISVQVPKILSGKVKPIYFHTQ
Procedure, shortened: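 Agonism scored as pEC50, fitted by 4-parameter curve against the response to 100 nM DHT, from dual-luciferase readout after 24 h compound treatment. Cells were HEK293 co-transfected (3 h) with human AR expression vector, androgen-responsive firefly reporter and Renilla control, in charcoal-stripped serum.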

For Cc1sc(N(CCc2ccc(OC(F)(F)F)cc2)Cc2ccc(C#N)cc2)nc1C(=O)NS(C)(=O)=O [Compound 506, 2-[(4-cyanophenyl)methyl-[2-[4-(trifluoromethoxy)phenyl]ethyl]amino]-5-methyl-N-methylsulfonyl-thiazole-4-carboxamide], the EC50 [1] was 25.1 nM and the EC50 (human androgen receptor) was > 10000 nM.
Cc1sc(N(Cc2cccc3ccccc23)c2ccc(C#N)cc2)nc1C(=O)NS(C)(=O)=O [Compound 68, 2-[4-cyano-N-(1-naphthylmethyl)anilino]-5-methyl-N-methylsulfonyl-thiazole-4-carboxamide] gave an EC50 [1] of 50.1 nM and an EC50 (human androgen receptor) of 794 nM.
Work on Cc1sc(N(Cc2ccc(OC(F)(F)F)cc2)c2ccc(C#N)cc2)nc1C(=O)NS(C)(=O)=O [Compound 7, 2-[4-cyano-N-[[4-(trifluoromethoxy)phenyl]methyl]anilino]-5-methyl-N-methylsulfonyl-thiazole-4-carboxamide] yielded an EC50 [1] of 31.6 nM and an EC50 (human androgen receptor) of 63.1 nM.
In the case of Cc1sc(N(CCc2ccc(Cl)c(Cl)c2)Cc2ccccc2)nc1C(=O)NS(C)(=O)=O [Compound 710, 2-[benzyl-[2-(3,4-dichlorophenyl)ethyl]amino]-5-methyl-N-methylsulfonyl-thiazole-4-carboxamide], the EC50 [1] was 50.1 nM and the EC50 (human androgen receptor) was 398 nM.
With Cc1sc(N(Cc2ccccc2)c2ccc3nccnc3c2)nc1C(=O)NS(C)(=O)=O [Compound 744, 2-[benzyl(quinoxalin-6-yl)amino]-5-methyl-N-methylsulfonyl-thiazole-4-carboxamide] the EC50 [1] was 316 nM and the EC50 (human androgen receptor) was 1260 nM.
In the case of Cc1sc(N(CCc2ccc(C#N)cc2)CC2CCCCC2)nc1C(=O)NS(=O)(=O)Cc1cccnc1 [Compound 725, 2-[2-(4-cyanophenyl)ethyl-(cyclohexylmethyl)amino]-5-methyl-N-(3-pyridylmethylsulfonyl)thiazole-4-carboxamide], the EC50 [1] was 100 nM and the EC50 (human androgen receptor) was > 10000 nM.
Cc1sc(N(CCOC2CCCCC2)c2ccc(C#N)cc2)nc1C(=O)NS(C)(=O)=O [Compound 370, 2-[4-cyano-N-[2-(cyclohexoxy)ethyl]anilino]-5-methyl-N-methylsulfonyl-thiazole-4-carboxamide] was tested, and the EC50 [1] was 79.4 nM and the EC50 (human androgen receptor) was 2510 nM.
With CCS(=O)(=O)NC(=O)c1nc(N(Cc2ccc(Cl)cc2)c2ccc(C#N)cc2)oc1C [Compound 627, 2-[N-[(4-chlorophenyl)methyl]-4-cyano-anilino]-N-ethylsulfonyl-5-methyl-oxazole-4-carboxamide] the EC50 [1] was 50.1 nM and the EC50 (human androgen receptor) was 1000 nM.
With Cc1sc(N(CCc2ccc(Cl)cc2)CC2CCCCC2)nc1C(=O)NS(C)(=O)=O [Compound 697, 2-[2-(4-chlorophenyl)ethyl-(cyclohexylmethyl)amino]-5-methyl-N-methylsulfonyl-thiazole-4-carboxamide] the EC50 [1] was 251 nM and the EC50 (human androgen receptor) was > 10000 nM.
With Cc1sc(N(Cc2ccc(-c3ccc(F)cn3)nc2)c2ccc(C#N)cc2)nc1C(=O)NS(C)(=O)=O [Compound 596, 2-[4-cyano-N-[[6-(5-fluoro-2-pyridyl)-3-pyridyl]methyl]anilino]-5-methyl-N-methylsulfonyl-thiazole-4-carboxamide] the EC50 [1] was 316 nM and the EC50 (human androgen receptor) was 3980 nM.
For Cc1sc(N(Cc2ccc3c(c2)C(=O)CCO3)c2ccc(C#N)cc2)nc1C(=O)NS(C)(=O)=O [Compound 138, 2-[4-cyano-N-[(4-oxochroman-6-yl)methyl]anilino]-5-methyl-N-methylsulfonyl-thiazole-4-carboxamide], the EC50 [1] was 100 nM and the EC50 (human androgen receptor) was 251 nM.
Cc1sc(N(CCc2ccc(OC(F)F)cc2)Cc2ccccc2)nc1C(=O)NS(C)(=O)=O [Compound 160, 2-[benzyl-[2-[4-(difluoromethoxy)phenyl]ethyl]amino]-5-methyl-N-methylsulfonyl-thiazole-4-carboxamide] gave an EC50 [1] of 100 nM and an EC50 (human androgen receptor) of 501 nM.
Cc1sc(N(Cc2ccccc2)c2ccc(OC(F)(F)F)cc2)nc1C(=O)NS(C)(=O)=O [Compound 34, 2-[N-benzyl-4-(trifluoromethoxy)anilino]-5-methyl-N-methylsulfonyl-thiazole-4-carboxamide] gave an EC50 [1] of 63.1 nM and an EC50 (human androgen receptor) of 3160 nM.
